In ChEMBL document CHEMBL2046425, “Neamphamide B, new cyclic depsipeptide, as an anti-dormant mycobacterial substance from a Japanese marine sponge of Neamphius sp” (2012):
Converted amounts (≈) assume the structure as drawn.

Tests used:
[1] = system: Mycobacterium tuberculosis; experiment: Antimicrobial activity against Mycobacterium bovis BCG under aerobic condition for 7 days by MTT assay; type: functional; conditions: variant bovis BCG, 168 h
[2] = system: Mycobacterium tuberculosis; experiment: Antimicrobial activity against Mycobacterium bovis BCG under dormancy-inducing hypoxic condition for 14 days by MTT assay; type: functional; conditions: variant bovis BCG, 336 h

**Q.** With COC(c1ccc(O)cc1)C1NC(=O)[C@H](CCC(N)=O)N(C)C(=O)[C@H](CC(C)C)NC(=O)[C@@H](CCCNC(=N)N)NC(=O)[C@@H]([C@@H](C)O)NC(=O)[C@H](NC(=O)C(NC(=O)[C@H](O)[C@H](O)[C@H](CCCNC(=N)N)NC(=O)[C@@H](CC(N)=O)NC(=O)C(C)C(O)C(C)CC(C)C)C(C)C(C)C(N)=O)[C@@H](C)OC(=O)[C@@H]2CCCCN2C1=O (some centres not stated) [NEAMPHAMIDE B] as the compound, how does the MIC [1] read?
**A.** 6.25 µg/mL (≈ 3.97 µM)

**Q.** What about the MIC [2] of the same compound?
**A.** 12.5 µg/mL (≈ 7.94 µM)
